The values that follow come from US5929097A, “Preparation and use of ortho-sulfonamido aryl hydroxamic acids as matrix metalloproteinase and tace inhibitors” (American Cyanamid Company, priority 1997, dated 1999).

Read-outs that look alike come from different tables or passages of the source.

One assay deals with MMP9. Put plainly: In vivo MMP inhibition (implanted dialysis tubing containing MMP enzyme). Set-up: species or system rat (Sprague-Dawley) or mouse (CD-1).
The next assay has as its target MMP-9 (Homo sapiens, UniProt P14780). Kind of assay: biochemical.
A further assay has as its target T1, MMP-1 (Homo sapiens, UniProt P03956).
T1 sequence (P03956 100-469): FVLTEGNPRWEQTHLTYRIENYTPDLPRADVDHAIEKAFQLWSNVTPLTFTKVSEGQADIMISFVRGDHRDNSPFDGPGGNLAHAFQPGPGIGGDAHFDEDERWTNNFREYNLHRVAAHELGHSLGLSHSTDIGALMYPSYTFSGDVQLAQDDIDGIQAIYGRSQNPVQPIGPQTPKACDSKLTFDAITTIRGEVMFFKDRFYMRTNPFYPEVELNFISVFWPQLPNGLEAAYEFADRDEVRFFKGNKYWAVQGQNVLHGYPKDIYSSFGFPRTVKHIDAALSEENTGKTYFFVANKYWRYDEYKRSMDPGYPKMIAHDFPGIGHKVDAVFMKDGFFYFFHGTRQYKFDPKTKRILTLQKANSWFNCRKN
Kind of assay: MMP-1 inhibition (thiopeptide/DTNB or fluorescent peptide substrate). Type of assay: biochemical.

For another assay, the target named is T2, TACE (Homo sapiens, UniProt P78536).
T2 construct: purchased Immunex
T2 sequence (P78536 215-824): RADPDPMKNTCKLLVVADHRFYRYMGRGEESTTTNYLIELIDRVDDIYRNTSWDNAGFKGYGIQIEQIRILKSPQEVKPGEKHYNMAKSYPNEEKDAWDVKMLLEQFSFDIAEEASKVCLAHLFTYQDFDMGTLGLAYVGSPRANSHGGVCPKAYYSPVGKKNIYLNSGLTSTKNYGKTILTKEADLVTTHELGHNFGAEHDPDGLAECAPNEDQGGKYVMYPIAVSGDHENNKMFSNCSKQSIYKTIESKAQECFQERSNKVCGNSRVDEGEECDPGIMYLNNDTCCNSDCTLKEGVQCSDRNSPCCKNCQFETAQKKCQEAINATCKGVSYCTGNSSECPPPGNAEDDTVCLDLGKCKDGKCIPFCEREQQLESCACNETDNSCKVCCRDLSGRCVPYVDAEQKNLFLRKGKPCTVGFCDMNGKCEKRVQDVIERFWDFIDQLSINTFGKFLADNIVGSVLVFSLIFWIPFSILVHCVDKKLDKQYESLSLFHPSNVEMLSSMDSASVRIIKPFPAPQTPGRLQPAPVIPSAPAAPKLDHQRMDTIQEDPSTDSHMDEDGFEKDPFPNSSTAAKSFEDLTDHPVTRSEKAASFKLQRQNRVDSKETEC
Put plainly: TACE inhibition (fluorescent peptidyl substrate). In kind it is biochemical.

A further assay deals with MMP-13 (Homo sapiens, UniProt P45452). Kind of assay: MMP-13 inhibition (thiopeptide/DTNB or fluorescent peptide substrate). Type of assay: biochemical.

Chain of MMP-9 (P14780 94-707): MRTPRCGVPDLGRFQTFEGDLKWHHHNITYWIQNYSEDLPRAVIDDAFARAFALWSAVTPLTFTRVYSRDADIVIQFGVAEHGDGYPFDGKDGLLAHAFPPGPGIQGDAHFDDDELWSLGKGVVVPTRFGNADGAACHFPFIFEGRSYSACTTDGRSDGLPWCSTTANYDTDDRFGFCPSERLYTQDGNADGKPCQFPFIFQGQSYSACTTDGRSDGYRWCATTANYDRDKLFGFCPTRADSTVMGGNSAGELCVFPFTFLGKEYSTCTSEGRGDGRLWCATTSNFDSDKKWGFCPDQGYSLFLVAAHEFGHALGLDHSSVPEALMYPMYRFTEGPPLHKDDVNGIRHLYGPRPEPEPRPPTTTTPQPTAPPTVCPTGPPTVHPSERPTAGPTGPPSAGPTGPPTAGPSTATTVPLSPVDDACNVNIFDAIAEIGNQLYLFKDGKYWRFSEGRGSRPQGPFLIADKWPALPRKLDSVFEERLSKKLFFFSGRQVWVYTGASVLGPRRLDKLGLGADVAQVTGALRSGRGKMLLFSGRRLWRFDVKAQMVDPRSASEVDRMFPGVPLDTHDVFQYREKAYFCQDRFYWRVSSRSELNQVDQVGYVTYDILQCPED
Description for MMP-13: (§1) The enzyme activity is measured by the rate of the color increase. The thiopeptide substrate is made up fresh as a 20 mM stock in 100% DMSO and the DTNB is dissolved in 100% DMSO as a 100 mM stock and stored in the dark at room temperature. Both the substrate and DTNB are diluted together to 1 mM with substrate buffer (50 mM HEPES pH 7.5, 5 mM CaCl2) before use. The stock of enzyme is diluted with assay buffer (50 mM HEPES, pH 7.5, 5 mM CaCl2, 0.02% Brij) to the desired final concentration.
Alternatively, a fluorescent peptide substrate is used. In this assay, the peptide substrate contains a fluorescent group and a quenching group. Upon cleavage of the substrate by an MMP, the fluorescence that is generated is quantitated on the fluorescence plate reader. The assay is run in HCBC assay buffer (50 mM HEPES, pH 7.0, 5 mM Ca^+2, 0.02% Brij, 0.5% Cysteine), with human recombinant MMP-1, MMP-9, or MMP-13. The substrate is dissolved in methanol and stored frozen in 1 mM aliquots. For the assay, substrate and enzymes are diluted in HCBC buffer to the desired concentrations. […]
For either the thiopeptide or fluorescent peptide assays, the slope of the line is calculated and represents the reaction rate. […] The mean (x±sem) of the control rate is calculated and compared for statistical significance (p<0.05) with drug-treated rates using Dunnett's multiple comparison test.
Description for MMP-9: as §1
Alternatively, a fluorescent peptide substrate is used. In this assay, the peptide substrate contains a fluorescent group and a quenching group. Upon cleavage of the substrate by an MMP, the fluorescence that is generated is quantitated on the fluorescence plate reader. The assay is run in HCBC assay buffer (50 mM HEPES, pH 7.0, 5 mM Ca^+2, 0.02% Brij, 0.5% Cysteine), with human recombinant MMP-1, MMP-9, or MMP-13. The substrate is dissolved in methanol and stored frozen in 1 mM aliquots. For the assay, substrate and enzymes are diluted in HCBC buffer to the desired concentrations. Compounds are added to the 96 well plate containing enzyme and the reaction is started by the addition of substrate.
For either the thiopeptide or fluorescent peptide assays, the slope of the line is calculated and represents the reaction rate. The linearity of the reaction rate is confirmed (r^2 >0.85). The mean (x±sem) of the control rate is calculated and compared for statistical significance (p<0.05) with drug-treated rates using Dunnett's multiple comparison test.
Description for MMP9: Drugs are administered PO, IP, SC or IV through a canula in the jugular vein. […] Contents of the dialysis tubing is collected and enzyme activity assayed.
Enzyme reaction rates for each dialysis tube are calculated. Tubes from at least 3 different animals are used to calculate the meani sem. Statistical significance (p<0.05) of vehicle-treated animals versus drug-treated animals is determined by analysis of variance.
Description for TACE: Procedure for Measuring TACE Inhibition
Using 96-well black microtiter plates, each well receives a solution composed of 10 μL TACE (Immunex, final concentration 1 μg/mL), 70 μL Tris buffer, pH 7.4 containing 10% glycerol (final concentration 10 mM), and 10 μL of test compound solution in DMSO (final concentration 1 μM, DMSO concentration <1%) and incubated for 10 minutes at room temperature.
The reaction is read (excitation 340 nm, emission 420 nm) for 10 min. and the increase in fluorescence over time is plotted as a linear line. The slope of the line is calculated and represents the reaction rate.
The linearity of the reaction rate is confined (r^2 >0.85). The mean (x±sem) of the control rate is calculated and compared for statistical significance (p<0.05) with drug-treated rates using Dunnert's multiple comparison test.

Consider `COc1ccc(S(=O)(=O)N(Cc2ccccc2)c2c(C)cc(Br)cc2C(=O)NO)cc1` [Example 25, 2-[Benzyl-(4-methoxy-benzenesulfonyl)-amino]-5-bromo-N-hydroxy-3-methyl-benzamide], for which, in the assay with MMP9 (100 mg/kg, ip), the “in-vivo MMP % inhibition vs. MMP9” value was 32%.

As to `CCCN(c1c(C)cc(C)cc1C(=O)NO)S(=O)(=O)c1ccc(OC)cc1` [Example 117, N-Hydroxy-2-[(4-methoxy-benzenesulfonyl)-propyl-amino]-3,5-dimethyl-benzamide], the “in-vivo MMP % inhibition vs. MMP9” value in the assay on MMP9 (100 mg/kg, ip) was determined as 28.3%.

Take `COc1ccc(S(=O)(=O)N(Cc2cccnc2)c2c(C)cc(Br)cc2C(=O)NO)cc1` [Example 91, 5-Bromo-N-hydroxy-2-[(4-methoxy-benzenesulfonyl)-pyridin-3-ylmethyl-amino]-3-methyl-benzamide]: the “in-vivo MMP % inhibition vs. MMP9” value in the assay with MMP9 (100 mg/kg, po) worked out at 55%.

The term IC50 denotes the concentration needed to halve the response being measured. As to `Cc1cccc(C(=O)NO)c1N(C)S(=O)(=O)c1ccc(Oc2ccncc2)cc1` [Example 417], the IC50 at MMP-9 turned out to be 6.8 nM; on MMP-1 it was 3240 nM.

`CCCCCCCCN(c1c(CN2CCN(C)CC2)cccc1C(=O)NO)S(=O)(=O)c1ccc(OC)cc1` [Example 325, N-Hydroxy-2-[(4-methoxy-benzenesulfonyl)-octyl-amino] -3-(4-methyl-piperazin-1-ylmethyl)-benzamide]: it took 20 nM to reach half-maximal inhibition against MMP-1 (IC50).

Consider `COc1ccc(S(=O)(=O)N(Cc2ccccc2)c2c(OCc3ccccc3)cccc2C(=O)NO)cc1` [Example 34, 2-[Benzyl-(4-methoxy-benzenesulfonyl)-amino]-3-benzyloxy-N-hydroxy-benzamide], for which the “in-vivo MMP % inhibition vs. MMP9” value with MMP9 (100 mg/kg, ip) was found to be 31.6%.

`COc1ccc(S(=O)(=O)N(Cc2ccccc2)c2c(Cl)cccc2C(=O)NO)cc1` [Example 24, 2-[Benzyl-(4-methoxy-benzenesulfonyl)-amino]-3-chloro-N-hydroxy-benzamide]: the IC50 at TACE (read-out: TACE IC50) is 1000 nM.

As to `COc1ccc(S(=O)(=O)N(Cc2cccnc2)c2c(C(=O)NO)cc(C)cc2-c2cccs2)cc1` [Example 145, N-Hydroxy-2-[(4-methoxy-benzenesulfonyl)-pyridin-3-ylmethyl-amino]-5-methyl-3-thiophen-2-yl-benzamide], the IC50 against MMP-9 turned out to be 7 nM; against MMP-1 it was 55 nM; at TACE (read-out: TACE IC50), 158 nM; at MMP-13 (read-out: MMP-13 IC50), 3 nM.

In the case of `COc1ccc(S(=O)(=O)N(Cc2cccnc2)c2c(OCc3cccnc3)cccc2C(=O)NO)cc1` [Example 61], the IC50 against MMP-9 was 34 nM; at TACE, 289 nM; at MMP-13 it was 33 nM. Moreover, the “in-vivo MMP % inhibition vs. MMP9” value in the assay with MMP9 (20 mg/kg, po) was 46%; with MMP9 (50 mg/kg, po) it was 59%.
